Among the data in patent publication EP0698025B1, “AMPA ANTAGONISTS AND A METHOD OF TREATMENT THEREWITH” (NEUROSEARCH A/S, priority 1993, dated 1994) are IC50 and ED50 values, retold here.

The target of one experiment is AMPA receptor. Kind of experiment: AMPA receptor binding affinity (as described by T. Honoré et al., Neuroscience Letters 54, 27-32 (1985)). The following applies: binding affinity for the AMPA receptor.
For experiment [1], the system named is AMPA-induced clonic seizures. Kind of experiment: In vivo AMPA seizure test (AMPA-induced clonic seizures). Also noted: species or system female NMRI mice. The conditions noted are these: Mus musculus; dose inhibiting 50% of the mice from having clonic seizures; test compound i.v. 5 min (or p.o. 30 min) before 0.3 µg icv AMPA; route not given. On the procedure: Also compounds of the present invention when adminestered i.v. or i.p. in the in vivo AMPA seizure test as described below inhibit the clonic seizures induced by AMPA.
AMPA given icv (intracerebroventricular) (15 µg/kg) NMRI to mice induces clonic seizures which should be inhibited by non-NMDA receptor antagonists. Method: Test compound was given i.v. 5 min (or p.o. 30 min) before a 0.3 µg icv administration of AMPA to 10 female NMRI mice (weighing 24-26 g) per dose. The number of mice experiencing clonic seizures within the next 5 min was noted. An ED50 value was calculated as the dose inhibiting 50% of the mice from having clonic seizures.

Regarding `CN1Cc2c(-c3ccc([N+](=O)[O-])cc3)cc3[nH]c(=O)c(=O)[nH]c3c2C1` [Compound 3], the IC50 (in general, the concentration needed to halve the response being measured) on AMPA receptor came to 600 nM.

On to `CN1CCc2c(-c3ccccc3)cc3c(c2C1)NC(=O)C3=NO` [Compound 9, 8-methyl-5-phenyl-6,7,8,9-tetrahydro-1H-pyrrolo[3,2-h]isoquinoline-2,3-dione 3-oxime], for which, on AMPA receptor, the IC50 came to 200 nM.

The compound `CN1CCc2c(-c3ccc([N+](=O)[O-])cc3)cc3c(c2C1)NC(=O)C3=NO` [Compound 10, 8-methyl-5-(4-nitrophenyl)-6,7,8,9-tetrahydro-1H-pyrrolo[3,2-h]isoquinoline-2,3-dione 3-oxime] gave an IC50 on AMPA receptor of 150 nM. Moreover, the 50% effect level in experiment [1] (ED50) was put at a dose of 5 mg/kg.

Regarding `CCN1Cc2c(-c3ccccc3)cc3c(c2C1)NC(=O)C3=NO` [Compound 13], the IC50 at AMPA receptor stood at 100 nM.
